This test concerns erythropoietin (EPO). As to the kind of experiment: Serum/plasma erythropoietin level by immunoassay (Example 2, Experiment I). It counts as in vivo, Swiss Webster male mice. The settings on record: mice; 200 mg/kg/day oral gavage 2.5 days; 4 h after final dose; relative to untreated controls; FIG. 2B. On the procedure: Twelve Swiss Webster male mice (30-32 g) were obtained from Simonsen, Inc. (Gilroy Calif.), and treated by oral gavage two times per day for 2.5 days (5 doses) with a 4 ml/kg volume of either 0.5% carboxymethyl cellulose (CMC; Sigma-Aldrich, St. Louis Mo.) (0 mg/kg/day) or 2.5% Compound C (25 mg/ml in 0.5% CMC) (200 mg/kg/day). Four hours after the final dose, animals were anesthetized with isoflurane and two blood samples were collected from the abdominal vein. One blood sample was collected into a MICROTAINER serum separator tube (Becton-Dickinson, Franklin Lakes N.J.), and incubated at room temperature for 30 minutes, centrifuged at 8,000 rpm at 4° C. for 10 minutes. The serum fraction was then processed and analyzed for erythropoietin (EPO) expression using a QUANTIKINE immunoassay (R&D Systems) according to the manufacturer's instructions. The second blood sample was collected into a MICROTAINER EDTA-2K tube (Becton-Dickinson) for hematocrit analysis. Hematocrit was measured by drawing EDTA-blood into a 75 mm×1.1-12 mm I.D. capillary tube (Chase Scientific Glass, Inc., Rockwood Tenn.) to approximately ¾ length. One end of the tube was sealed with CRITOSEAL sealant (Sherwood Medical Company) and the tube was centrifuged in a J-503M MICROHEMATOCRIT centrifuge (Jorgensen Laboratories, Inc., Loveland Colo.) at 12,000 rpm for 5 minutes. Hematocrit was read against a reader card. […]

As to `O=C(O)CNC(=O)c1nc(Cl)c2ccccc2c1O` [Compound C, [(1-chloro-4-hydroxy-isoquinoline-3-carbonyl)-amino]-acetic acid], the erythropoietin plasma level result was “significant increase”.

(Values after patent publication US20130203805A1, “Methods for treating anemia using inhibitors of hypoxia-inducible factor (HIF) hydroxylase” (FIBROGEN, INC., priority 2001, published 2013).)
